In patent US20250262315A1 (priority 2021, published 2025):
One block for each substance: values may come before it.

How the values were obtained:
monkey cynomolgus plasma = conditions: 37° C., up to 96 h
[1] = Pooled healthy human plasma; conditions: 37° C., up to 96 h
[2] = system: Human neutrophil elastase; test: human neutrophil elastase in tris-buffered saline (TBS, pH 7.4); conditions: 37° C., up to 24 h
[3] = molecular target: T1, human neutrophil elastase (Homo sapiens, UniProt P08246); test: Human neutrophil protease-mediated cleavage assay using pyrene probes: neutrophil elastase; type: biochemical; conditions: 37° C.; for stability against degradation mediated by neutrophil elastase or mouse plasma (in words): additional probes; for stability against human neutrophil elastase-mediated degradation (in words): pyrene probes; for % intact probe, Neutrophil elastase: after incubation for 24 h, n = 2, mean ± SEM
T1 construct: purchased MilliporeSigma
T1 sequence (P08246 30-267): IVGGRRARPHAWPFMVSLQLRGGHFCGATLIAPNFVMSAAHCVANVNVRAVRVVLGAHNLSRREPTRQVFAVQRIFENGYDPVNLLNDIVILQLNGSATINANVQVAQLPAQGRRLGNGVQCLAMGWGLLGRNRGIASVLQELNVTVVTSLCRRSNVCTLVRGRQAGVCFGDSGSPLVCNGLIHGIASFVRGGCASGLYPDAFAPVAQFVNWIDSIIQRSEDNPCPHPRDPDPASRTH
Method: (§1) Human neutrophil protease-mediated cleavage assay using pyrene probes. Each test compound (10 mM in DMSO, 2 μL) was mixed with 97 μL of tris-buffered saline (TBS, pH 7.4) and 1 μL of 1-pyrenemethylamine (10 mM in DMSO, internal standard). The mixture was incubated at 37° C. for 10 min. Human neutrophil elastase (40 ng μL^−1, 20 μL in TBS, MilliporeSigma), human proteinase 3 (250 ng μL^−1, 5 μL in TBS, MilliporeSigma) or human cathepsin G (330 ng μL^−1, 5 μL in TBS, MilliporeSigma) was added to the test compound mixture in 1:1 volume ratio, followed by incubation at 37° C. Aliquots (5 μL) were collected at each time point (0, 1, 3, 6, and 24 h for elastase; 0 and 24 h for proteinase 3 and cathepsin G). Cold acetonitrile containing 1% formic acid (25 μL) was added to precipitate proteins. The mixture was then kept at −20° C. for 30 min. Precipitated proteins were pelleted by centrifugation (15,000×g, 4° C., 30 min) and supernatant of each sample was analyzed for quantification by analytical HPLC (UV absorbance at 342 nm). The amount of each probe was normalized to the peak area of the internal standard. All assays were performed at least three times in technical duplicate, and data shown are representative of the replicates.

human proteinase 3 [4] = molecular target: T2, human proteinase 3 (Homo sapiens, UniProt P24158); test: Human neutrophil protease-mediated cleavage assay using pyrene probes: proteinase 3; type: biochemical; conditions: for % intact probe, Proteinase 3: after incubation for 24 h, 37° C., n = 2, mean ± SEM; for resistance to cleavage by human proteinase 3 (in words): pyrene probes
T2 construct: purchased MilliporeSigma
T2 sequence (P24158 28-248): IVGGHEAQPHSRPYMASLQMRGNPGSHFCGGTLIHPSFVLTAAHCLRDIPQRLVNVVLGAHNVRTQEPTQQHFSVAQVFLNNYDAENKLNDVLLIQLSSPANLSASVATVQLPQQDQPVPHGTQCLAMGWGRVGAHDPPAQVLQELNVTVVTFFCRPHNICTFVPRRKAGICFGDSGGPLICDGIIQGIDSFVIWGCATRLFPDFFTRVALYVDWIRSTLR
Method: as §1

human cathepsin G [5] = molecular target: T3, human cathepsin G (Homo sapiens, UniProt P08311); test: Human neutrophil protease-mediated cleavage assay using pyrene probes: cathepsin G; type: biochemical; conditions: for % intact probe, Cathepsin G: after incubation for 24 h, 37° C., n = 2, mean ± SEM
T3 construct: purchased MilliporeSigma
T3 sequence (P08311 21-244): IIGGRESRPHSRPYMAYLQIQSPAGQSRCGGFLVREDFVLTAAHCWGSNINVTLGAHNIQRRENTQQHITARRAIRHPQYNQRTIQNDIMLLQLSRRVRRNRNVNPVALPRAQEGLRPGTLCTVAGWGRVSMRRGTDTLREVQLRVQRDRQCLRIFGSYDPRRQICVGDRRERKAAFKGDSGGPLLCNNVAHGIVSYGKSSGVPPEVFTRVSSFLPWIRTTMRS
Method: as §1

[6] = Plasma stability test using pyrene probes, human plasma; type: in vitro ADME; conditions: for % intact probe, 48 h incubation, Human / % intact probe, 96 h incubation, Human: undiluted human plasma, 37° C.
Method: (§2) Plasma stability test using pyrene probes. Each test compound (10 mM in DMSO, 2 μL) was mixed with 1 μL of 1-pyrenemethylamine (10 mM in DMSO, internal standard) and incubated at 37° C. for 10 min. Pooled healthy human plasma, monkey cynomolgus plasma or BALB/c mouse plasma (197 μL, Innovative Research) was added to the mixture, followed by incubation at 37° C. Aliquots (5 μL) were collected at each time point (0, 48, and 96 h for human and monkey cynomolgus plasma; 0, 1, 6, 24, 48, and 96 h for BALB/c mouse plasma) and 25 μL of cold acetonitrile containing 1% formic acid was added to precipitate proteins. The mixture was then kept at −20° C. for 30 min. Precipitated proteins were separated by centrifugation (15,000×g, 4° C., 30 min) and supernatant of each sample was obtained and analyzed for quantification by analytical HPLC as described above. All assays were performed at least three times in technical duplicate, and data shown are representative of the replicates.

[7] = Plasma stability test using pyrene probes, monkey plasma; type: in vitro ADME, cynomolgus monkey; conditions: for % intact probe, 48 h incubation, Monkey / % intact probe, 96 h incubation, Monkey: undiluted monkey plasma, 37° C.
Method: as §2

[8] = Plasma stability test using pyrene probes, BALB/c mouse plasma; type: in vitro ADME; conditions: 37° C.; for stability in undiluted BALB/c plasma (in words): pyrene probes; for % intact probe, 48 h incubation, Mouse / % intact probe, 96 h incubation, Mouse: undiluted mouse plasma; for % intact probe, 96 h incubation, Mouse: 96 h (4-day)
Method: as §2

human cathepsin G [9] = test: human cathepsin G in tris-buffered saline (TBS, pH 7.4); conditions: 37° C., up to 24 h
human proteinase 3 [10] = test: human proteinase 3 in tris-buffered saline (TBS, pH 7.4); conditions: 37° C., up to 24 h

not cleaved (monkey cynomolgus plasma): 95.8 ± 1.8 % intact probe after 96 h | not cleaved [1]: 91.1 ± 1.1 % intact probe after 96 h | cleaved bond [2]: valine-citrulline
Substance: EVCit

Substance: Ac-Val-(N-Me)Cit-PABC-sar-pyrene [S1d]
stability against degradation mediated by neutrophil elastase or mouse plasma (in words) [3]: instability

Substance: Ac-Glu-Ile-Cit-PABC-sar-pyrene [probe 3d]
stability against human neutrophil elastase-mediated degradation (in words) [3]: complete degradation

Substance: Ac-Glu-Val-(N-Me)Cit-PABC-sar-pyrene [EV(N-Me)Cit 3e]
% intact probe, Neutrophil elastase [3]: 99.0 ± 2.4% | stability against human neutrophil elastase-mediated degradation (in words) [3]: marginal or almost no degradation | % intact probe, Proteinase 3 (human proteinase 3 [4]): 84.4 ± 0.9% | resistance to cleavage by human proteinase 3 (in words) (human proteinase 3 [4]): partially degraded | % intact probe, Cathepsin G (human cathepsin G [5]): 99.6 ± 0.3% | % intact probe, 48 h incubation, Human [6]: 99.5% | % intact probe, 96 h incubation, Human [6]: 86.4% | % intact probe, 48 h incubation, Monkey [7]: 97.8% | % intact probe, 96 h incubation, Monkey [7]: 91.9% | stability in undiluted BALB/c plasma (in words) [8]: improved stability compared to EVCit probe 2 | % intact probe, 48 h incubation, Mouse [8]: 37.8% | % intact probe, 96 h incubation, Mouse [8]: 12.0%

Substance: Ac-Glu-Phe-Cit-PABC-sar-pyrene [S1a]
stability against degradation mediated by neutrophil elastase or mouse plasma (in words) [3]: instability

Substance: Ac-Glu-(N-Me)Val-Cit-PABC-sar-pyrene [S1b]
stability against degradation mediated by neutrophil elastase or mouse plasma (in words) [3]: instability

Substance: Ac-Glu-Gly-Cit-PABC-sar-pyrene [EGCit 3a]
% intact probe, Neutrophil elastase [3]: 99.2 ± 0.3% | stability against human neutrophil elastase-mediated degradation (in words) [3]: marginal or almost no degradation | % intact probe, Proteinase 3 (human proteinase 3 [4]): 98.0 ± 1.1% | resistance to cleavage by human proteinase 3 (in words) (human proteinase 3 [4]): completely intact | % intact probe, Cathepsin G (human cathepsin G [5]): 100.0 ± 1.8% | resistance to cleavage by cathepsin G (in words) (human cathepsin G [5]; pyrene probes): completely intact | degradation in human plasma (in words) ([6]; pyrene probes): completely withstood degradation | % intact probe, 48 h incubation, Human [6]: 96.5% | % intact probe, 96 h incubation, Human [6]: 100.3% | degradation in monkey plasma (in words) ([7]; pyrene probes): completely withstood degradation | % intact probe, 48 h incubation, Monkey [7]: 98.7% | % intact probe, 96 h incubation, Monkey [7]: 98.8% | stability in undiluted BALB/c plasma (in words) [8]: improved stability compared to EVCit probe 2 | % intact probe, 48 h incubation, Mouse [8]: 69.2% | % intact probe, 96 h incubation, Mouse [8]: 40.3% | % intact probe, 96 h incubation, Mouse ([8]; listed as EGCit probe 3a): 40%

not cleaved (monkey cynomolgus plasma): 91.9 ± 1.2 % intact probe after 96 h | not cleaved (human cathepsin G [9]): 99.6 ± 0.3 % intact probe after 24 h | not cleaved [2]: 99.0 ± 2.4 % intact probe after 24 h
Substance: EV(N-Me)Cit-PABC-pyrene

not cleaved [2]: marginal or almost no degradation
Substance: GCit

not cleaved [2]: marginal or almost no degradation
Substance: ELCit

Substance: Ac-Glu-Leu-Cit-PABC-sar-pyrene [probe 3c]
stability against human neutrophil elastase-mediated degradation (in words) [3]: marginal or almost no degradation

Substance: Ac-Gly-Cit-PABC-sar-pyrene [probe 3f]
stability against human neutrophil elastase-mediated degradation (in words) [3]: marginal or almost no degradation | stability in undiluted BALB/c plasma (in words) [8]: less stable than the EGCit probe 3a

Substance: Ac-Glu-Ala-Cit-PABC-sar-pyrene [probe 3b]
stability against human neutrophil elastase-mediated degradation (in words) [3]: complete degradation | stability in undiluted BALB/c plasma (in words) [8]: improved stability compared to EVCit probe 2

cleaved bond [2]: valine-citrulline, major
Substance: VCit-PABC-pyrene

not cleaved (monkey cynomolgus plasma): 98.8 ± 1.6 % intact probe after 96 h | not cleaved [1]: 100.3 ± 5.5 % intact probe after 96 h | not cleaved (human cathepsin G [9]): 100.0 ± 1.8 % intact probe after 24 h | not cleaved (human proteinase 3 [10]): 98.0 ± 1.1 % intact probe after 24 h | not cleaved [2]: 99.2 ± 0.3 % intact probe after 24 h
Substance: EGCit
